According to patent publication US20050208496A1, “Methods of testing for bronchial asthma or chronic obstructive pulmonary disease” (Genox Research, Inc., priority 2002, published 2005):
Where two headings read alike, the source gives them in different places.

System: respiratory epithelial cells
[1] = IL-13 vs no stimulation, lot 2 Day 3 AI
[2] = IL-13 vs no stimulation, lot 2 Day 7 AI

IL-13: human IL-13 (Peprotech, Inc.) added to the medium at 50 ng/mL to stimulate respiratory epithelial cells
IGFBP6 (1736_at) expression change [1]: −4.7
LOH11CR2A (38151_at) expression change [1]: −3.2
MMP9 (31859_at) expression change [1]: −18
MMP10 (1006_at) expression change [1]: −30.3
MSMB (32149_at) expression change [1]: −21.3
NDRG1 (36933_at) expression change [1]: −2.9
NOTCH3 (38750_at) expression change [1]: −4.5
PFTK1 (36502_at) expression change [1]: −2.3
PSCA (33792_at) expression change [1]: −4.9
PTK2B (33804_at) expression change [1]: −3.7
PTPRZ1 (1364_at) expression change [1]: −4.3
RARRES1 (1042_at) expression change [1]: −3.1
RARRES1 (33505_at) expression change [1]: −3.5
RDC1 (34288_at) expression change [1]: −3.7
RTP801 (39827_at) expression change [1]: −2.3
S100A8 (41096_at) expression change [1]: −3
SEC14L2 (32817_at) expression change [1]: −6.9
SERPINA3 (33825_at) expression change [1]: −7
SERPINE1 (672_at) expression change [1]: −62.1
SERPINE1 (38125_at) expression change [1]: −11.2
STK39 (39120_at) expression change [1]: −2.6
TSPAN-5 (40990_at) expression change [1]: −3.2
VRP (38223_at) expression change [1]: −2
c-fos (1915_s_at) expression change [1]: −2
c-fos (1916_s_at) expression change [1]: −3.1
AGR2 (38827_at) expression change [2]: −3.7
AKR1B10 (37482_at) expression change [2]: −9.7
AKR1C3 (37399_at) expression change [2]: −2.8
ANXA10 (32349_at) expression change [2]: −18.9
APM2 (32527_at) expression change [2]: −3.3
BCAS1 (37821_at) expression change [2]: −13.2
BDKRB2 (39310_at) expression change [2]: −4.2
BENE (33331_at) expression change [2]: −8.5
C4.4A (41641_at) expression change [2]: −6.8
CRA (1230_g_at) expression change [2]: −3
CTSL2 (40717_at) expression change [2]: −5.6
DEFB2 (32464_at) expression change [2]: −2.6
ECM1 (37600_at) expression change [2]: −11
EPHA1 (1108_s_at) expression change [2]: −3.6
ETFB (36881_at) expression change [2]: −3.4
FABP5 (39799_at) expression change [2]: −3
GABRE (34280_at) expression change [2]: −3.2
HLA-DPB1 (38095_i_at) expression change [2]: −2.5
HLA-DPB1 (38096_f_at) expression change [2]: −3.3
IGFBP6 (1736_at) expression change [2]: −7.2
IMPA2 (36496_at) expression change [2]: −2.7
MMP9 (31859_at) expression change [2]: −113.5
MMP10 (1006_at) expression change [2]: −35.2
MN1 (37283_at) expression change [2]: −7.3
MSMB (32149_at) expression change [2]: −8.1
NCALD (38803_at) expression change [2]: −4.2
NOTCH3 (38750_at) expression change [2]: −3.5
PFTK1 (36502_at) expression change [2]: −3.5
PSCA (33792_at) expression change [2]: −9.2
PTK2B (33804_at) expression change [2]: −3.5
PTPRZ1 (1364_at) expression change [2]: −14.9
RARRES1 (1042_at) expression change [2]: −2.4
RARRES1 (33505_at) expression change [2]: −3.4
RDC1 (34288_at) expression change [2]: −3
RTP801 (39827_at) expression change [2]: −2.4
S100A8 (41096_at) expression change [2]: −6.1
SERPINA3 (33825_at) expression change [2]: −9.3
SERPINB1 (33305_at) expression change [2]: −2.9
SERPINB5 (862_at) expression change [2]: −2.2
SERPINE1 (672_at) expression change [2]: −34.4
SERPINE1 (38125_at) expression change [2]: −11
STK39 (39120_at) expression change [2]: −2.3
TSPAN-5 (40990_at) expression change [2]: −6
VRP (38223_at) expression change [2]: −2.4
c-fos (1915_s_at) expression change [2]: −2.3
c-fos (1916_s_at) expression change [2]: −3.6
pendrin gene expression level, factor of increase in response to IL-13 stimulation (IMM method, day 3 and day 7, both Lots 1 and 2): ≥ 20
pendrin gene (36376_at, AF030880) expression fold change upon IL-13 stimulation, HG-U95A chip (Lot 2, Day 3, AI): 118.3
pendrin gene (36376_at, AF030880) expression fold change upon IL-13 stimulation, HG-U95A chip (Lot 2, Day 7, AI): 58.2
AA149682 (51925_at) expression fold change (lot 1, Day 3, AI method): 2.9 fold
AA420479 (52539_at) expression fold change (lot 1, Day 3, AI method): 3.8 fold
AA541787 (52622_at) expression fold change (lot 1, Day 3, AI method): 3.3 fold
AA582926 (52307_at) expression fold change (lot 1, Day 3, AI method): 2.4 fold
ACP5 (677_s_at) expression, fold change upon IL-13 stimulation (lot 1, Day 3, AI method): −2.8 fold
ADAM8 (40712_at) expression, fold change upon IL-13 stimulation (lot 1, Day 3, AI method): 5.8 fold
ADAM28 (35479_at) expression, fold change upon IL-13 stimulation (lot 1, Day 3, AI method): 9 fold
AI310524 (47087_at) expression fold change (lot 1, Day 3, AI method): 3.6 fold
AI565105 (54886_at) expression fold change (lot 1, Day 3, AI method): 2.8 fold
AI659927 (54033_at) expression fold change (lot 1, Day 3, AI method): 4.2 fold
AI718385 (53061_at) expression fold change (lot 1, Day 3, AI method): 4.6 fold
AI809925 (53010_at) expression fold change (lot 1, Day 3, AI method): 3.1 fold
AI989346 (52327_s_at) expression fold change (lot 1, Day 3, AI method): 2.9 fold
AKAP2 (35985_at) expression, fold change upon IL-13 stimulation (lot 1, Day 3, AI method): 6 fold
AKAP2 (48035_at) expression fold change (lot 1, Day 3, AI method): 6.6 fold
ALOX15 (34636_at) expression, fold change upon IL-13 stimulation (lot 1, Day 3, AI method): 47.8 fold
BAL (52167_at) expression fold change (lot 1, Day 3, AI method): 3.5 fold
BRCA1 (626_s_at) expression fold change (lot 1, Day 3, AI method): 9.1 fold
BST2 (39061_at) expression, fold change upon IL-13 stimulation (lot 1, Day 3, AI method): 9.9 fold
C1S (40496_at) expression, fold change upon IL-13 stimulation (lot 1, Day 3, AI method): 3.3 fold
C21orf11 (58957_at) expression fold change (lot 1, Day 3, AI method): 6.6 fold
CCND3 (1794_at) expression fold change upon IL-13 stimulation (lot 1, Day 3, AI method): 2.2 fold
CCND3 (1795_g_at) expression fold change upon IL-13 stimulation (lot 1, Day 3, AI method): 2.2 fold
CD47 (37890_at) expression fold change (lot 1, Day 3, AI method): 2.1 fold
CDH6 (1620_at) expression fold change upon IL-13 stimulation (lot 1, Day 3, AI method): 4.3 fold
CDH6 (57421_at) expression fold change (lot 1, Day 3, AI method): 3.5 fold
CDH26 (46916_at) expression fold change (lot 1, Day 3, AI method): 8.9 fold
CH25H (32363_at) expression, fold change upon IL-13 stimulation (lot 1, Day 3, AI method): 9.9 fold
CLDN1 (46260_at) expression fold change (lot 1, Day 3, AI method): 2.4 fold
CLDN4 (35276_at) expression, fold change upon IL-13 stimulation (lot 1, Day 3, AI method): 2.3 fold
CTSC (133_at) expression, fold change upon IL-13 stimulation (lot 1, Day 3, AI method): 3.5 fold
CXCL16 (44095_at) expression fold change (lot 1, Day 3, AI method): 2.5 fold
